US20120003156A1, “METHODS FOR TREATING NEOPLASIA BY INHIBITING LACTATE DEHYDROGENASE AND/OR NICOTINAMIDE PHOSPHORIBOSYLTRANSFERASE” (The Johns Hopkins University, priority 2008, published 2012)
“Also recorded” adds a separate entry of the source.

Legend:
[1] = Solubility in aqueous solution; type: physicochemical; conditions: relative to the 42 μg dose
Description: (§1) Although the renewed interest in the Warburg effect is accompanied by a greater understanding of its molecular underpinnings, targeting it for therapeutic purposes has become a major challenge. […] Of note, primary human lymphomas have been documented to have elevated LDHA expression particularly in hypoxic regions. […] A desired FX11 dose of 42 μg for daily intraperitoneal (IP) injection was calculated. An initial serum level of ˜100 μM was expected, assuming a uniform and immediate distribution in the vascular system without accounting for the drug half-life or drug metabolism.

[2] = biological target: purified human liver LDHA (Homo sapiens, UniProt P00338); test: Determination of Ki and enzyme kinetics of LDHA; conditions: NADH as substrate; Lineweaver-Burk plots
Description: The reaction velocity of purified human LDHA or GAPDH was determined by a decrease or increase in absorbance at 340 nm of NADH, respectively. […] The GADPH activity was assessed using the protocol described in Worthington Enzyme Manual: http://www.worthington-biochem.com/GAPD/assay.html with varying concentrations of NAD^+. Ki values were determined from double-reciprocal plots by linear regression analysis using SigmaPlot Enzyme Kinetic software.

LDHA [3] = biological target: T1, LDHA (Homo sapiens, UniProt P00338); conditions: cited from earlier work
P493 cells [4] = test: Conversion of 13C-glucose to 13C-lactate; type: cell-based, human
Description: In addition to oxidative stress induced by inhibition of LDHA, it was determined how FX11 affects cellular energy metabolism. […].

[5] = test system: human pancreatic cell line E3LZ10.7; test: Cell growth; type: cell-based
[6] = test system: P493 human lymphoma B cells; test: Cell population growth, trypan blue live cell count; type: cell-based
Description: (§2) P493 human lymphoma B cells were maintained in RPMI 1640 with 10% fetal bovine serum (FBS) and 1% penicillin-streptomycin. P198 human pancreatic cancer cells; RCC4, RCC4-VHL human renal carcinoma cells; MCF-7 and MDA-MB-453 breast cancer cells were maintained in high glucose (4.5 mg/ml) DMEM with 10% FBS and 1% penicillin-streptomycin. Non-hypoxic cells (20% O2) were maintained at 37° C. in a 5% CO2, 95% in an air incubator. Hypoxic cells (1% O2) were maintained in a controlled atmosphere chamber (PLAS-LABS, Lansing, Mich.) with a gas mixture containing 1% O2, 5% CO2, and 94% N2 at 37° C. for the indicated time. Bright live cells were counted daily in a hemacytometer using trypan blue dye to exclude dead cells. All cells were grown at a concentration of 10^5 cells/ml. All drugs treatment began at day 0.
siRNAs targeting human LDHA (ON-TARGETplus SMARTpool) were purchased from Dharmacon Research Inc. Targeting sequences for LDHA were a pool of the following four target sequences: sequence 1, […]; sequence 2, […]; sequence 3, […]; sequence 4, […]. Accordingly, one of skill in the art would recognize the siRNA sequences corresponding to these targets. For P493 human lymphoma B cells, transfection of siRNAs was performed using an Amaxa Nucleotransfection device according to the manufacturer's instructions. Briefly, 2 μg siLDHA ON-TARGETplus SMARTpool or ON-TARGETplus Non-targeting Pool (Dharmacon Research Inc.) were transfected into 2×10^6 cells at 0 hours. […]. The remaining cells were harvested for immunoblot analysis. For P198 human pancreatic cancer cells, transfection of siRNAs was performed using X-tremeGENE siRNA Transfection Reagent (Roche) according to the manufacturer's instructions.

[7] = test system: P198 human pancreatic cancer xenografts; test: Human P198 pancreatic cancer xenograft; type: in vivo, athymic nu mice; conditions: treatment from 200 mm^3; daily IP 42 μg FX11; compared with E
Description: The animal studies were performed according to the protocols approved by the Animal Care and Use Committee at Johns Hopkins University. In order to generate tumorigenesis study in xenograft model, 2.0×10^7 P493 human lymphoma B cells or 5×10^6 human pancreatic cancer cells were injected subcutaneously into male SCID mice (NCI) or athymic Hsd: RH-Foxn1nu mice (Harlan), respectively, as previously described (Feldmann et al., 2007; Gao et al., 2009; Gao et al., 2007). When the tumor volume reached 200 mm^3, groups of 5 mice were injected with control 2% DMSO or 42 μg FX11 and/or 100 μg FK866. The tumor volumes were measured using a digital caliper after 4, 7 and 10 days of treatment. Tumor volumes were calculated using the following formula: [length (mm)×width (mm)×width (mm)×0.52]. The entire experiment was repeated seven times.

[8] = test system: Ramos Burkitt lymphoma cells; test: Cell population growth; type: cell-based, human
MCF-7 cells = test: Cell population growth; type: cell-based, human; conditions: dose-response
Description: as §2

MDA-MB-453 cells = test: Cell population growth; type: cell-based, human; conditions: dose-response
Description: as §2

RCC4 cells = test: Cell population growth; type: cell-based, human; conditions: dose-response
Description: as §2

RCC4-VHL cells = test: Cell population growth; type: cell-based, human; conditions: dose-response
Description: as §2

[9] = Side effects, hematology and blood chemistry in treated animals
AMP kinase (AMPK) = test: Immunoblot of phospho-AMPK; type: cell-based, human; conditions: 20 hours of exposure
[10] = Expected initial serum level after IP injection; type: in vivo; conditions: 42 μg IP; assuming uniform and immediate distribution in the vascular system
Description: as §1

P493 cells [11] = test: ROS measurement by DCFDA flow cytometry; type: cell-based, human; conditions: 9 μM FX11 or FK866, 24 hours
Description: The measurement of intracellular ROS production was measured by staining cells with 5-(and-6)-carboxy-2′,7′-dichlorodihydrofluorescein diacetate (carboxy-H2DCFDA; Molecular Probes) according to the manufacturer's instructions. 10^5 cells/ml were treated with 9 μM FX11 or FK866 for 24 hours. Stained cells were analyzed in FACScan flow cytometers (BD Bioscience).

LDHA [12] = biological target: T1, LDHA; test: Affinity chromatography of LDHA on Sepharose-immobilized FX11 or E; type: binding; conditions: P493 cell lysate; elution with 1 mM NADH
Description: FX11 and E molecules which contain carboxyl groups were coupled to immobilized diaminodipropylamine (DADPA) resins according to the manufacturer's instructions (Pierce). […] An equal amount of cell lysate was loaded onto these beads and eluted with 1 mM NADH after washing with 6 column volumes of high salt (1 M NaCl). LDHA activity was performed from the eluates to assess the binding affinity of the molecules with LDHA.

CCCc1c(O)c(O)c(C(=O)O)c2cc(Cc3ccccc3)c(C)cc12 [FX11, 2,3-dihydroxy-6-methyl-7-(phenylmethyl)-4-propylnaphthalene-1-carboxylic acid]
solubility limit in aqueous solution [1]: dose could only be doubled before the limit of FX11 in aqueous solution was reached | mode of inhibition of LDHA [2]: competitive inhibitors; also recorded: competitive inhibitor of NADH | selectivity LDHA versus LDHB or pLDH (LDHA [3]): preferentially inhibited LDHA as opposed to LDHB or pLDH | 13C-glutamate (P493 cells [4]): increase | conversion of 13C-glucose to 13C-lactate (P493 cells [4]): reduced | growth inhibition [5]: dose-dependent manner | growth inhibition at 1% O2 compared with normoxia ([6]; 9 μM FX11): increased | proliferative rate of P493 cells with siRNA knock-down of LDHA ([6]; 9 μM FX11): not further slowed | inhibition of P493 cells in the absence of glucose ([6]; glucose-depleted medium): could not inhibit P493 cells further | inhibition of P493 cells, dose-response ([6]; normoxia (20% O2) and hypoxia (1% O2)): dose-dependent manner that was augmented in hypoxia | proliferation of P493 cells ([6]; single agent): diminished proliferation | tumor growth of P198 pancreatic tumor xenografts [7]: significant response; also recorded: effectively inhibited | cell population growth inhibition [8]: sensitive to FX11 inhibition in a manner that is diminished by glucose withdrawal; also recorded: dose-dependent manner | cell population growth / sensitivity (MCF-7 cells): inhibited cell population growth; also recorded: more sensitive | cell population growth (MDA-MB-453 cells): inhibited cell population growth | cell population growth / sensitivity (RCC4 cells): inhibited cell population growth; also recorded: more sensitive | cell population growth (RCC4-VHL cells): inhibited cell population growth | kidney (BUN, creatinine) or liver (aspartate aminotransferase, alanine aminotransferase, alkaline phosphatase) toxicity by blood chemistries ([9]; doses that affected tumor growth in vivo): did not reveal any evidence | hematology (cytopenia) ([9]; single agent, five animals studied): no cytopenia | body weight ([9]; treated animals): did not lose weight | lethargy, ability to eat and drink ([9]; treated animals): no lethargy or the inability to eat and drink | AMP kinase (AMPK) activation (AMP kinase (AMPK)): activation | initial serum level [10]: ~100 µM | ROS production (P493 cells [11]): increased | LDHA activity eluted from affinity beads relative to beads with immobilized E (LDHA [12]): 4 fold
